ChEMBL document CHEMBL5537158, “Polymyxins with Potent Antibacterial Activity against Colistin-Resistant Pathogens: Fine-Tuning Hydrophobicity with Unnatural Amino Acids” (J Med Chem, 2024)
Values after ≈ are worked out from the molar mass of the structure shown. Positions of bridges follow the written chain, without caps; N, C: chain ends. Non-standard residues stand in square brackets, D forms with d. Residues, ends and D or L forms follow the SMILES beside them. *: point of attachment. d(hhPhe) = N[C@H](CCCc1ccccc1)C(=O)O; d(hPhe) = N[C@H](CCc1ccccc1)C(=O)O; d(hLeu) = CC(C)CC[C@@H](N)C(=O)O; dAoc(2) = CCCCCC[C@@H](N)C(=O)O; Octanoyl = CCCCCCCC(=O)*; Dab = NCC[C@H](N)C(=O)O

Key:
Klebsiella pneumoniae = assay: Antimicrobial activity against Klebsiella pneumoniae ATCC 13883 assessed as bacterial growth inhibition incubated for 20 hrs by broth microdilution method; type: functional
Acinetobacter baumannii [1] = assay: Antimicrobial activity against Acinetobacter baumannii ATCC 19606 assessed as bacterial growth inhibition incubated for 20 hrs by broth microdilution method; type: functional
[2] = Hemolytic activity in human RBC at 400 ug/ml after 1 hr; type: toxicity, cell-based, Erythrocyte; details: red blood cells (erythrocytes), at 400 µg/mL, read-out: Activity
Escherichia coli [3] = assay: Antibacterial activity against Escherichia coli ATCC 25922 assessed as bacterial growth inhibition incubated for 20 hrs by broth microdilution method; type: functional
Escherichia coli [4] = assay: Antimicrobial activity against […] Escherichia coli harboring mcr-1 assessed as bacterial growth inhibition incubated for 20 hrs by broth microdilution method; type: functional
Pseudomonas aeruginosa [5] = assay: Antimicrobial activity against Pseudomonas aeruginosa PAO1 assessed as bacterial growth inhibition incubated for 20 hrs by broth microdilution method; type: functional
Pseudomonas aeruginosa [6] = assay: Antimicrobial activity against colistin resistant Pseudomonas aeruginosa 7197/19 assessed as bacterial growth inhibition incubated for 20 hrs by broth microdilution method; type: functional
Acinetobacter baumannii [7] = assay: Antimicrobial activity against colistin resistant Acinetobacter baumannii ATCC 3658/17 assessed as bacterial growth inhibition incubated for 20 hrs by broth microdilution method; type: functional

CC(=O)N[C@H](Cc1ccc(Cl)cc1)C(=O)N[C@@H](CCN)C(=O)N[C@H](C(=O)N[C@@H](CCN)C(=O)N[C@H]1CCNC(=O)[C@H]([C@@H](C)O)NC(=O)[C@H](CCN)NC(=O)[C@H](CCN)NC(=O)[C@H](CC(C)C)NC(=O)[C@@H](Cc2ccccc2)NC(=O)[C@@H](CCN)NC1=O)[C@H](C)O
MIC (Klebsiella pneumoniae): 16 µg/mL (≈ 12.4 µM)
MIC (Acinetobacter baumannii [1]): 0.5 µg/mL (≈ 0.389 µM)
hemolysis at 1 h, 400 ug/ml [2]: < 10%

CC(=O)N[C@H](Cc1c(F)c(F)c(F)c(F)c1F)C(=O)N[C@@H](CCN)C(=O)N[C@H](C(=O)N[C@@H](CCN)C(=O)N[C@H]1CCNC(=O)[C@H]([C@@H](C)O)NC(=O)[C@H](CCN)NC(=O)[C@H](CCN)NC(=O)[C@H](CC(C)C)NC(=O)[C@@H](Cc2ccccc2)NC(=O)[C@@H](CCN)NC1=O)[C@H](C)O
MIC (Escherichia coli [3]): < 0.125 µg/mL
MIC (Escherichia coli [4]): 8 µg/mL (≈ 5.96 µM)
MIC (Klebsiella pneumoniae): 8 µg/mL (≈ 5.96 µM)
MIC (Pseudomonas aeruginosa [5]): 0.25 µg/mL (≈ 0.186 µM)
hemolysis at 1 h, 400 ug/ml [2]: < 10%

CC(=O)N[C@H](Cc1ccc(Br)cc1)C(=O)N[C@@H](CCN)C(=O)N[C@H](C(=O)N[C@@H](CCN)C(=O)N[C@H]1CCNC(=O)[C@H]([C@@H](C)O)NC(=O)[C@H](CCN)NC(=O)[C@H](CCN)NC(=O)[C@H](CC(C)C)NC(=O)[C@@H](Cc2ccccc2)NC(=O)[C@@H](CCN)NC1=O)[C@H](C)O
MIC (Escherichia coli [3]): 0.06 µg/mL (≈ 0.0451 µM)
MIC (Klebsiella pneumoniae): 8 µg/mL (≈ 6.01 µM)
MIC (Pseudomonas aeruginosa [5]): 0.125 µg/mL (≈ 0.0939 µM)
MIC (Pseudomonas aeruginosa [6]): 16 µg/mL (≈ 12 µM)
hemolysis at 1 h, 400 ug/ml [2]: < 10%

CC(=O)N[C@H](Cc1cccc(F)c1)C(=O)N[C@@H](CCN)C(=O)N[C@H](C(=O)N[C@@H](CCN)C(=O)N[C@H]1CCNC(=O)[C@H]([C@@H](C)O)NC(=O)[C@H](CCN)NC(=O)[C@H](CCN)NC(=O)[C@H](CC(C)C)NC(=O)[C@@H](Cc2ccccc2)NC(=O)[C@@H](CCN)NC1=O)[C@H](C)O
MIC (Escherichia coli [3]): 0.25 µg/mL (≈ 0.197 µM)
MIC (Pseudomonas aeruginosa [5]): 0.25 µg/mL (≈ 0.197 µM)
MIC (Acinetobacter baumannii [1]): 1 µg/mL (≈ 0.787 µM)
MIC (Acinetobacter baumannii [7]): 16 µg/mL (≈ 12.6 µM)
hemolysis at 1 h, 400 ug/ml [2]: < 10%

CCCCCCCC(=O)N[C@@H](CCN)C(=O)N[C@H](C(=O)N[C@@H](CCN)C(=O)N[C@H]1CCNC(=O)[C@H]([C@@H](C)O)NC(=O)[C@H](CCN)NC(=O)[C@H](CCN)NC(=O)[C@H](Cc2ccccc2)NC(=O)[C@@H](CCC(C)C)NC(=O)[C@H](CCN)NC1=O)[C@@H](C)O (Octanoyl-[Dab]T[Dab][Dab][Dab][d(hLeu)]F[Dab][Dab]T; lactam 4-C)
MIC (Escherichia coli [3]): < 0.125 µg/mL
MIC (Klebsiella pneumoniae): 0.5 µg/mL (≈ 0.415 µM)
MIC (Pseudomonas aeruginosa [6]): 0.23 µg/mL (≈ 0.191 µM)
MIC (Acinetobacter baumannii [1]): < 0.125 µg/mL
MIC (Acinetobacter baumannii [7]): 1 µg/mL (≈ 0.831 µM)

CCCCCCCC(=O)N[C@@H](CCN)C(=O)N[C@H](C(=O)N[C@@H](CCN)C(=O)N[C@H]1CCNC(=O)[C@H]([C@@H](C)O)NC(=O)[C@H](CCN)NC(=O)[C@H](CCN)NC(=O)[C@H](CC(C)C)NC(=O)[C@@H](CCc2ccccc2)NC(=O)[C@H](CCN)NC1=O)[C@@H](C)O (Octanoyl-[Dab]T[Dab][Dab][Dab][d(hPhe)]L[Dab][Dab]T; lactam 4-C)
MIC (Escherichia coli [3]): 0.25 µg/mL (≈ 0.208 µM)
MIC (Pseudomonas aeruginosa [5]): 0.25 µg/mL (≈ 0.208 µM)
MIC (Acinetobacter baumannii [7]): 4 µg/mL (≈ 3.32 µM)

CCCCCCCC(=O)N[C@@H](CCN)C(=O)N[C@H](C(=O)N[C@@H](CCN)C(=O)N[C@H]1CCNC(=O)[C@H]([C@@H](C)O)NC(=O)[C@H](CCN)NC(=O)[C@H](CCN)NC(=O)[C@H](Cc2ccccc2)NC(=O)[C@@H](CCCc2ccccc2)NC(=O)[C@H](CCN)NC1=O)[C@@H](C)O (Octanoyl-[Dab]T[Dab][Dab][Dab][d(hhPhe)]F[Dab][Dab]T; lactam 4-C)
MIC (Escherichia coli [3]): 0.25 µg/mL (≈ 0.2 µM)
MIC (Escherichia coli [4]): 2 µg/mL (≈ 1.6 µM)
MIC (Pseudomonas aeruginosa [6]): 0.5 µg/mL (≈ 0.4 µM)
MIC (Acinetobacter baumannii [7]): 1 µg/mL (≈ 0.799 µM)

CCCCCCCC(=O)N[C@@H](CCN)C(=O)N[C@H](C(=O)N[C@@H](CCN)C(=O)N[C@H]1CCNC(=O)[C@H]([C@@H](C)O)NC(=O)[C@H](CCN)NC(=O)[C@H](CCN)NC(=O)[C@H](CC(C)C)NC(=O)[C@@H](CCCc2ccccc2)NC(=O)[C@H](CCN)NC1=O)[C@@H](C)O (Octanoyl-[Dab]T[Dab][Dab][Dab][d(hhPhe)]L[Dab][Dab]T; lactam 4-C)
MIC (Escherichia coli [3]): < 0.125 µg/mL
MIC (Pseudomonas aeruginosa [6]): 0.5 µg/mL (≈ 0.411 µM)
MIC (Acinetobacter baumannii [1]): < 0.125 µg/mL

CCCCCCCC(=O)N[C@@H](CCN)C(=O)N[C@H](C(=O)N[C@@H](CCN)C(=O)N[C@H]1CCNC(=O)[C@H]([C@@H](C)O)NC(=O)[C@H](CCN)NC(=O)[C@H](CCN)NC(=O)[C@H](Cc2ccccc2)NC(=O)[C@@H](CCCCCC)NC(=O)[C@H](CCN)NC1=O)[C@@H](C)O (Octanoyl-[Dab]T[Dab][Dab][Dab][dAoc(2)]F[Dab][Dab]T; lactam 4-C)
MIC (Escherichia coli [3]): 0.25 µg/mL (≈ 0.205 µM)
MIC (Klebsiella pneumoniae): 1 µg/mL (≈ 0.821 µM)
MIC (Pseudomonas aeruginosa [6]): 0.25 µg/mL (≈ 0.205 µM)
MIC (Acinetobacter baumannii [1]): 0.25 µg/mL (≈ 0.205 µM)
MIC (Acinetobacter baumannii [7]): 0.5 µg/mL (≈ 0.411 µM)
